Activity calls are given as the source filed them. No cut-off for these calls is given here.
What was measured:
[1] = Inhibition of PP2a at 10 uM
[2] = target: Ribosomal protein S6 kinase beta-1 (Homo sapiens) (UniProt P23443); assay: Inhibition of S6K1 at 10 uM
[3] = target: Ribosomal protein S6 kinase alpha-5 (Homo sapiens) (UniProt O75582); assay: Inhibition of MSK1 at 10 uM
[4] = Inhibition of PH domain deficient PKBdelta at 10 uM
[5] = target: Platelet-derived growth factor receptor alpha (Homo sapiens, UniProt P16234); assay: Inhibition of PDGFRalpha
[6] = target: High affinity nerve growth factor receptor (Homo sapiens, UniProt P04629); assay: Inhibition of TrkA
[7] = target: Tyrosine-protein kinase BTK (Homo sapiens, UniProt Q06187); assay: Inhibition of Btk
[8] = target: Ribosomal protein S6 kinase alpha-1 (Homo sapiens) (UniProt Q15418); assay: Inhibition of MAPKAPK-1a at 10 uM
[9] = target: Protein kinase C alpha type (Homo sapiens) (UniProt P17252); assay: Inhibition of PKCalpha at 10 uM
[10] = target: Tyrosine-protein kinase Lyn (Homo sapiens, UniProt P07948); assay: Inhibition of Lyn
[11] = target: Dual specificity mitogen-activated protein kinase kinase 1 (Homo sapiens) (UniProt Q02750); assay: Inhibition of MKK1 at 10 uM
[12] = target: T1, MAP kinase-activated protein kinase 5 (Homo sapiens) (UniProt Q8IW41); assay: Inhibition of PRAK at 10 uM
T1 sequence (whole entry): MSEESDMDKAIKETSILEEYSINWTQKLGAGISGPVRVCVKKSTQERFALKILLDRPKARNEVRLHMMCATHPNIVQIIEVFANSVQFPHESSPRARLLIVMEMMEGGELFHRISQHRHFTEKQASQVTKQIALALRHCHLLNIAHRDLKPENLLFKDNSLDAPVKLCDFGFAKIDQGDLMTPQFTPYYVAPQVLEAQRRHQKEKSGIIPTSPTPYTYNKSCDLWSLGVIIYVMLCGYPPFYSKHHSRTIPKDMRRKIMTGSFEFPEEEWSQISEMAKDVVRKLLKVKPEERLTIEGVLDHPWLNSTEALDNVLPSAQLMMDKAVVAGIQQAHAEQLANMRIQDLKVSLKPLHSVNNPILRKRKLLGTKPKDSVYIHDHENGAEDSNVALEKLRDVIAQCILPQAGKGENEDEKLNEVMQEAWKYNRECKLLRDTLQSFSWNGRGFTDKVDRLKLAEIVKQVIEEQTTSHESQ

[13] = target: T2, Ephrin type-A receptor 3 (Homo sapiens, UniProt P29320); assay: Inhibition of Hek
T2 sequence (P29320 whole entry): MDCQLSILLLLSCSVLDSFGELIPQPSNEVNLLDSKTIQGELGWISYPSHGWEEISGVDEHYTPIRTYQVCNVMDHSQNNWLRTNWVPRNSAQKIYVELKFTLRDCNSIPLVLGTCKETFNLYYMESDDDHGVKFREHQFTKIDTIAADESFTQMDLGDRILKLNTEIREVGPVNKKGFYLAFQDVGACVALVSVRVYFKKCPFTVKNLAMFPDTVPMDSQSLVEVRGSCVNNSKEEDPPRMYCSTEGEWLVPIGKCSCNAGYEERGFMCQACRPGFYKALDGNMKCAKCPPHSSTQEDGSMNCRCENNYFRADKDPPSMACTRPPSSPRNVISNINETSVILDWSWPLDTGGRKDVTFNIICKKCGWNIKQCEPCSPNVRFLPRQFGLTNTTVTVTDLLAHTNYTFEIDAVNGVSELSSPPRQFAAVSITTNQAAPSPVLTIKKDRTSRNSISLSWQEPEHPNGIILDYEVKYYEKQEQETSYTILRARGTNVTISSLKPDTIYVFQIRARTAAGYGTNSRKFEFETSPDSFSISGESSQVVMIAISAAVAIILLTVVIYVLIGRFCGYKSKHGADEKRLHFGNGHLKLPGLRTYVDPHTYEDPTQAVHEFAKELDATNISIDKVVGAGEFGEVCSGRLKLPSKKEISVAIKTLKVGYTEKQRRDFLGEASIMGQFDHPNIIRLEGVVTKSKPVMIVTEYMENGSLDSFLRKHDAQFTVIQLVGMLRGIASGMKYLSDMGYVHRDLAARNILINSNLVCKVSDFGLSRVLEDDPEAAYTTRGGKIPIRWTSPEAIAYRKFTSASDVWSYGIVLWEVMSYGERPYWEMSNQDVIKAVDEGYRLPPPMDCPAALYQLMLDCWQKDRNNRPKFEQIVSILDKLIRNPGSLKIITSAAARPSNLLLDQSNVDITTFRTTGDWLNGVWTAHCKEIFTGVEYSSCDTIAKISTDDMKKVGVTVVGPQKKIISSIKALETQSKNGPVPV

[14] = target: T3, Inhibitor of nuclear factor kappa-B kinase subunit beta (Homo sapiens, UniProt O14920); assay: Inhibition of Flag epitope-tagged IKK-beta preincubated for 5 mins by scintillation proximity assay
T3 sequence (O14920 whole entry): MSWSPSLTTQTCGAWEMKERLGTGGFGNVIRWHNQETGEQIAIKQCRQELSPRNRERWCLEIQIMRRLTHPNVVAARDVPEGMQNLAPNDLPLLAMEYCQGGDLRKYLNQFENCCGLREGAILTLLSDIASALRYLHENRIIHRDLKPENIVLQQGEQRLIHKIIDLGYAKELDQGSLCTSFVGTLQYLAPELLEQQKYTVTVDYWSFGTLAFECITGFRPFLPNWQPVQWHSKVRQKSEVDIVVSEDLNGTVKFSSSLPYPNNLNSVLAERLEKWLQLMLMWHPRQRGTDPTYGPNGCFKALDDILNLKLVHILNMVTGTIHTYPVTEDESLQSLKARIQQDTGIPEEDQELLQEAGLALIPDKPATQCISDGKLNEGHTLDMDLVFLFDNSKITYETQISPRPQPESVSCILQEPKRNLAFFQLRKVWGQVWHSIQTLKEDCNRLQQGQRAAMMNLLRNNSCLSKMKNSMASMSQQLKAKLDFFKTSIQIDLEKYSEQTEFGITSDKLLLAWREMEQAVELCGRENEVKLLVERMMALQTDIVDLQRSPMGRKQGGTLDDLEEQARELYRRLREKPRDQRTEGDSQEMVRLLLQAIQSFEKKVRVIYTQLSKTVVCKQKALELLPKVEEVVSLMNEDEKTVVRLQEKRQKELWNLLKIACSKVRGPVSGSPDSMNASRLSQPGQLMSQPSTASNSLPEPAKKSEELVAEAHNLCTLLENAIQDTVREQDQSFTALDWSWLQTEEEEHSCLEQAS

[15] = target: Hepatocyte growth factor receptor (Homo sapiens, UniProt P08581); assay: Inhibition of HGFR
[16] = target: Tyrosine-protein kinase Lck (Homo sapiens) (UniProt P06239); assay: Inhibition of Lck at 10 uM
Sequence of Tyrosine-protein kinase Lck (Homo sapiens) (P06239 2-509 limits assumed): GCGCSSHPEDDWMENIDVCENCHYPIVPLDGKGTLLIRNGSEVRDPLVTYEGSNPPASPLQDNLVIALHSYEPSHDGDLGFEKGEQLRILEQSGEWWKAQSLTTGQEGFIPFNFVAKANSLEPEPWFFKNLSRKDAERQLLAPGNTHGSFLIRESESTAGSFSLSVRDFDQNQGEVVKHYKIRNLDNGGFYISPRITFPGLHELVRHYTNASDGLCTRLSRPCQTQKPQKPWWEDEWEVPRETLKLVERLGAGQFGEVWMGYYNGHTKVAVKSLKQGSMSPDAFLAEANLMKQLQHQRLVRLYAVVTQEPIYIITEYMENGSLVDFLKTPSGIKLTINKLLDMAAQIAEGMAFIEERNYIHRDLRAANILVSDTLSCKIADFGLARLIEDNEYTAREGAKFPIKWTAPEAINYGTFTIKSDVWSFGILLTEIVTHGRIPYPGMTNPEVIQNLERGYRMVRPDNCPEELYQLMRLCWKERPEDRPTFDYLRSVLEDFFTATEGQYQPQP

Sequence of Dual specificity mitogen-activated protein kinase kinase 1 (Homo sapiens) (Q02750 whole entry): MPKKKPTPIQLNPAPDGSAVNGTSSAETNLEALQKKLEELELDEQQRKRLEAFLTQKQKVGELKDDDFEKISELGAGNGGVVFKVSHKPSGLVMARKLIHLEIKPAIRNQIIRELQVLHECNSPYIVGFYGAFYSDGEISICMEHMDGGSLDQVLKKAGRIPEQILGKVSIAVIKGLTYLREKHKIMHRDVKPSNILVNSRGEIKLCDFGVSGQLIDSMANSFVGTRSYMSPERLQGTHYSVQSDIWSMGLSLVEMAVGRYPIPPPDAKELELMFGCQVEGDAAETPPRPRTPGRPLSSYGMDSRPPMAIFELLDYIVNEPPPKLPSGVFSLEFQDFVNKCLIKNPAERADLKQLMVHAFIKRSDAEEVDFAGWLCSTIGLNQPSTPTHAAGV
Sequence of Tyrosine-protein kinase Lyn (P07948 whole entry): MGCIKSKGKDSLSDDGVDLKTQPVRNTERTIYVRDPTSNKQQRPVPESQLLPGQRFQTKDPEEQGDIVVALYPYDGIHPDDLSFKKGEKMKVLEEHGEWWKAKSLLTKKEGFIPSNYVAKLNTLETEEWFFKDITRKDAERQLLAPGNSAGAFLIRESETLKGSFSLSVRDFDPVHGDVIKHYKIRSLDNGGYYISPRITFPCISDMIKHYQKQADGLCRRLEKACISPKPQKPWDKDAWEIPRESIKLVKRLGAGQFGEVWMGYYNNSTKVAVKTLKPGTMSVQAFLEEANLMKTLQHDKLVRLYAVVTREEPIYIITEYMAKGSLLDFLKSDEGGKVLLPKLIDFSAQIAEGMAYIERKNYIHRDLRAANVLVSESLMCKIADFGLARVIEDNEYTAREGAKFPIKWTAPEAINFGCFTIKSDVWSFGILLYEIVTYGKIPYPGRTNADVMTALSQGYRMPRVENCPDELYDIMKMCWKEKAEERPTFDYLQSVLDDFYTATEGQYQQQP
Sequence of Tyrosine-protein kinase BTK (Q06187 whole entry): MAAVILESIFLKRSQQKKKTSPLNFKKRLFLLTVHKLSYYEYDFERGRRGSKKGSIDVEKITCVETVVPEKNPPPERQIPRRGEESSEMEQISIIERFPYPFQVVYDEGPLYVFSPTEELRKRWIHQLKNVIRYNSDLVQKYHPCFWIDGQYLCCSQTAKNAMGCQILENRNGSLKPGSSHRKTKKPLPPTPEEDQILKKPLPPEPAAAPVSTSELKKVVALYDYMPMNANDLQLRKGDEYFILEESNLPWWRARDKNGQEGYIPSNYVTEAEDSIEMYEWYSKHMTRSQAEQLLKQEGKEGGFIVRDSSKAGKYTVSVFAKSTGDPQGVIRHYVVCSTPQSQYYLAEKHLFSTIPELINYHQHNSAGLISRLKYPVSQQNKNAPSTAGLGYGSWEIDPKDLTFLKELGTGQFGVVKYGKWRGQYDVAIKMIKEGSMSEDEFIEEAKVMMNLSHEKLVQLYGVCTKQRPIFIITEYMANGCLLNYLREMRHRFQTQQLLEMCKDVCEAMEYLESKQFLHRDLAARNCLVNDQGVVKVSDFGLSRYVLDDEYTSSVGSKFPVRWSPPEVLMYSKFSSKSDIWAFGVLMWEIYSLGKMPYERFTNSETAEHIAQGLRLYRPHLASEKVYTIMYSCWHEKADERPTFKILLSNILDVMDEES
Sequence of Ribosomal protein S6 kinase alpha-1 (Homo sapiens) (Q15418 whole entry): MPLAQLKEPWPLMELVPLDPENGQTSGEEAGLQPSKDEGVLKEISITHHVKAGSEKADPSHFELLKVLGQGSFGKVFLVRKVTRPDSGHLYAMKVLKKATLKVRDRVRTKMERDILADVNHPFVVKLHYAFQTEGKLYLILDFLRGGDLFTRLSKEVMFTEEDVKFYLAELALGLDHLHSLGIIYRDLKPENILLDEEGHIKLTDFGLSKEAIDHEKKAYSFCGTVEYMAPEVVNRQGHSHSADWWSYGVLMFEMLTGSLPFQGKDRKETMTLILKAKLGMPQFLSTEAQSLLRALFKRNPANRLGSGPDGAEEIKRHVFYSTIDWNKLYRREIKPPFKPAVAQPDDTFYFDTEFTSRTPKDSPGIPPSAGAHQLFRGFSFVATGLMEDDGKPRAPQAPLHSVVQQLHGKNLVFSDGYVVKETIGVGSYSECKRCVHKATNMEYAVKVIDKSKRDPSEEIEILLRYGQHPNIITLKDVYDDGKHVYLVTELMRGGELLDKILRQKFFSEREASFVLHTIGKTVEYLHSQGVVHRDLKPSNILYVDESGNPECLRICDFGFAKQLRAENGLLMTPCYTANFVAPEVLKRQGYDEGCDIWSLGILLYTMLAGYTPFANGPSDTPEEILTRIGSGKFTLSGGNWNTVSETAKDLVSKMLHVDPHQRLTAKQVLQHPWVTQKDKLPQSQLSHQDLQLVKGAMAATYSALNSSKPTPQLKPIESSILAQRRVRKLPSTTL
Sequence of Ribosomal protein S6 kinase beta-1 (Homo sapiens) (P23443 whole entry, looked up): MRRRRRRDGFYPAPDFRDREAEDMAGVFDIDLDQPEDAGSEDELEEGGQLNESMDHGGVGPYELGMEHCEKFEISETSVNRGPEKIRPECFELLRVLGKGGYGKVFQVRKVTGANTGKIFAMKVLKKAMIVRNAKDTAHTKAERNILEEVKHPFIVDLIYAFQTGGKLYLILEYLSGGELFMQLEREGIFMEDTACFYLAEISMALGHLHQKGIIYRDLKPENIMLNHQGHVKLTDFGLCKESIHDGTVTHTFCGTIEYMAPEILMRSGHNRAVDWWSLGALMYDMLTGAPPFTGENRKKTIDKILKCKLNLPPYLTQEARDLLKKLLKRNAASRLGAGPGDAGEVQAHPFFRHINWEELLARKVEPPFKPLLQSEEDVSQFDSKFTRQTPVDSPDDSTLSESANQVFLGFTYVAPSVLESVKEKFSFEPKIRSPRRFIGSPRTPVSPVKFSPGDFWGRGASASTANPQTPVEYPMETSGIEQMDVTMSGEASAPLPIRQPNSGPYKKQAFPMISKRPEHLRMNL
Sequence of High affinity nerve growth factor receptor (P04629 whole entry): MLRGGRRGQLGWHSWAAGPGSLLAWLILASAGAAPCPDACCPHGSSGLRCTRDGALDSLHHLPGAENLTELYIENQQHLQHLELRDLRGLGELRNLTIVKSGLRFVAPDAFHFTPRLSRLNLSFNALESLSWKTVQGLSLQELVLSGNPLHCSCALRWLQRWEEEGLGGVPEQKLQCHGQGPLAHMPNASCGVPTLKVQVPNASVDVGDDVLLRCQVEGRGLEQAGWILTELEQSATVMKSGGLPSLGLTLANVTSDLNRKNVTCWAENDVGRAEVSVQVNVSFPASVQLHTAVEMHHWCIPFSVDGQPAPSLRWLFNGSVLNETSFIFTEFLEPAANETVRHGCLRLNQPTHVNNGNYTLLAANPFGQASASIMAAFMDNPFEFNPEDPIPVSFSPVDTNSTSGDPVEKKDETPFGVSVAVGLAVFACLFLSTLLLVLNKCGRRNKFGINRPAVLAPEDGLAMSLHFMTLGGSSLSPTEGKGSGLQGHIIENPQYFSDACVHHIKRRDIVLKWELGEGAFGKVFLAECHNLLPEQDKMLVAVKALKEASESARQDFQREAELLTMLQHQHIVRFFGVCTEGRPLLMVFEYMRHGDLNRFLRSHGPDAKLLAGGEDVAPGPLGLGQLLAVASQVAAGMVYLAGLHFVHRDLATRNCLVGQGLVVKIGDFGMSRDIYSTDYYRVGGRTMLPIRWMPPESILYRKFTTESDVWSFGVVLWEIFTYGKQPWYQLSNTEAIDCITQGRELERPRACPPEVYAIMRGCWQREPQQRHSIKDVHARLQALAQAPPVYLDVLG

## CCCc1cc(N2CCCC(O)C2)nc2sc(C(N)=O)c(N)c12 (configuration not stated)
[1]
  Activity: inactive
[2]
  Activity: inactive
[3]
  Activity: inactive
[4]
  Activity: inactive
[5]
  IC50: > 7 µM
[6]
  IC50: > 7 µM
[7]
  IC50: > 7 µM
[8]
  Activity: inactive
[9]
  Activity: inactive
[10]
  IC50: > 7 µM
[11]
  Activity: inactive
[12]
  Activity: inactive
[13]
  IC50: > 7 µM
[14]
  IC50: 0.57 µM
[15]
  IC50: > 7 µM
[16]
  Activity: inactive

## CCCc1cc(N2CCC(N)CC2)nc2sc(C(N)=O)c(N)c12
[1]
  Activity: inactive
[2]
  Activity: inactive
[3]
  Activity: inactive
[4]
  Activity: inactive
[5]
  IC50: > 7 µM
[6]
  IC50: > 7 µM
[7]
  IC50: > 7 µM
[8]
  Activity: inactive
[9]
  Activity: inactive
[10]
  IC50: > 7 µM
[11]
  Activity: inactive
[12]
  Activity: inactive
[13]
  IC50: 7 µM
[14]
  IC50: 0.041 µM
[16]
  Activity: inactive

## CCCc1cc(N2CCNCC2)nc2sc(C(N)=O)c(N)c12
[1]
  Activity: inactive
[2]
  Activity: inactive
[3]
  Activity: inactive
[4]
  Activity: inactive
[5]
  IC50: 0.3 µM
[6]
  IC50: > 7 µM
[7]
  IC50: > 7 µM
[8]
  Activity: inactive
[9]
  Activity: inactive
[10]
  IC50: > 7 µM
[11]
  Activity: inactive
[12]
  Activity: inactive
[13]
  IC50: 8 µM
[14]
  IC50: 0.12 µM
[15]
  IC50: > 7 µM
[16]
  Activity: inactive

## CCCc1cc(N2CCC(O)CC2)nc2sc(C(N)=O)c(N)c12
[1]
  Activity: inactive
[2]
  Activity: inactive
[3]
  Activity: inactive
[4]
  Activity: inactive
[5]
  IC50: > 7 µM
[7]
  IC50: > 7 µM
[8]
  Activity: inactive
[9]
  Activity: inactive
[10]
  IC50: > 7 µM
[11]
  Activity: inactive
[12]
  Activity: inactive
[13]
  IC50: 9 µM
[14]
  IC50: 0.28 µM
[15]
  IC50: > 7 µM
[16]
  Activity: inactive
